Test results reported in patent publication EP0082498A2, “Beta-lactam compounds and process for the preparation thereof” (SAGAMI CHEMICAL RESEARCH CENTER, priority 1981, dated 1983).
Converted amounts (≈) assume the structure as drawn. Like-named read-outs stand apart in the source and are kept apart here.

What was measured:
Assay in all cases: Antibacterial activity, minimum inhibition concentration (MIC)
Assay type in all cases: cell-based
[1] = system: Staphylococcus aureus MS 353; conditions: for MIC: Staphylococcus aureus; for minimum inhibition concentration (MIC): Table 1
Protocol: (§1) Antibacterial activities of the compounds according to this invention, which had been prepared in the preceding Examples, were measured according to the method prescribed by The Committee of Amendment of "The method for measurement of the minimum inhibition concentration", The Chemotherapy Association, Japan (See Chemotherapy, Vol. 29, No. 1, pp. 76 ~ 79 (1981)).
(§2) The test results are shown in terms of the minimum inhibition concentration (MIC) (unit: µg/mℓ) in the following Tables 1 to 4.

[2] = system: Salmonella typhimurium IID-971; conditions: for MIC: Salmonella enterica, read-out: minimum inhibition concentration (MIC)
Protocol: as §1, §2

[3] = system: Proteus morganii IFO 3848; conditions: for MIC: Morganella morganii; for minimum inhibition concentration (MIC): Table 1
Protocol: as §1, §2

[4] = system: Salmonella typhimrium 901; conditions: Table 4; Salmonella typhimrium 901; read-out: minimum inhibition concentration (MIC)
Protocol: as §1, §2

[5] = MS353, Table 1, Staphylococcus aureus MS 353, read-out: minimum inhibition concentration (MIC)
[6] = Table 1, Salmonella typhimurium IID-971
[7] = IFO3848, Table 1, Proteus morganii IFO 3848, read-out: minimum inhibition concentration (MIC)

| SMILES | MIC [1, 5] [µg/mL] | MIC [2, 6] [µg/mL] | MIC [3, 7] [µg/mL] | also measured |
| --- | --- | --- | --- | --- |
| Cn1nnnc1SCC1=C(C(=O)O)N2C(=O)C(NC(=O)C(=CC(N)=O)c3csc(N)n3)C2SC1 (single isomer, unassigned) [Example 18, 7-[2-Carbamoylmethylene-2-(2-aminothiazol-4-yl)acetamido]-3-(1-methyl-lH-tetrazol-5-yl)thiomethyl-3-cephem-4-carboxylic acid] | 12.5 (≈ 23.9 µM) | 0.1 (≈ 0.191 µM) | ≤ 0.006 | – |
| Cn1nnnc1SCC1=C(C(=O)O)N2C(=O)C(NC(=O)C(=CC#N)c3csc(NC=O)n3)[C@H]2SC1 (single isomer, unassigned) [Example 13, 7-[2-Cyanomethylene-2-(2-formylaminothiazol-4-yl)acetamido]-3-(1-methyl-1H-tetrazol-5-yl)thiomethyl-3-cephem-4-carboxylic acid] | – | – | – | minimum inhibition concentration (MIC) ([1]; Staphylococcus aureus MS 353): 50 µg/mL (≈ 93.7 µM); minimum inhibition concentration (MIC) [2, 6]: 25 µg/mL (≈ 46.9 µM); minimum inhibition concentration (MIC) ([3]; Proteus morganii IFO 3848): 50 µg/mL (≈ 93.7 µM) |
| CCSC=C(C(=O)NC1C(=O)N2C(C(=O)O)=C(CSc3nnnn3C)CSC12)c1csc(N)n1 (stereo not drawn) [Example 10, sodium 7-[2-ethylmercaptomethylene-2-(2-aminothiazol-4-yl)acetamido]-3-(l-methyl-lH-tetrazol-5-yl)thiomethyl-3-cephem-4-carboxylate] | 1.56 | ≤ 0.006 | ≤ 0.006 | – |
| NC(=O)Cn1nnnc1SCC1=C(C(=O)O)N2C(=O)C(NC(=O)C(=CCl)c3csc(N)n3)C2SC1 (single isomer, unassigned) [Example 29, sodium 7-[2-chloromethylene-2-(2-aminothiazol-4-yl)acetamido]-3-(1-carbamoylmethyl-1,2,3,4-tetrazol-5-yl)thiomethyl-3-cephem-4-carboxylate] | – | – | – | MIC [4]: 0.1 µg/mL; MIC ([1]; MS353, Table 4, Staphylococcus aureus MS 353, read-out: minimum inhibition concentration (MIC)): 0.78 µg/mL |
| CCSC=C(C(=O)NC1C(=O)N2C(C(=O)O)=C(CSc3nnnn3C)CSC12)c1csc(N)n1 (stereo not drawn) [Example 11, 7-[2-ethylmercaptomethylene-2-(2-aminothiazol-4-yl)-acetamido]-3-(l-methyl-lH-tetrazol-5-yl)thiomethyl-3-cephem-4-carboxylic acid] | – | – | – | minimum inhibition concentration (MIC) ([1]; Staphylococcus aureus MS 353): 0.78 µg/mL (≈ 1.44 µM); minimum inhibition concentration (MIC) [2, 6]: ≤ 0.006 µg/mL; minimum inhibition concentration (MIC) ([3]; Proteus morganii IFO 3848): ≤ 0.006 µg/mL |
| Cn1nc(O)c(=O)nc1SCC1=C(C(=O)O)N2C(=O)C(NC(=O)C(=CCl)c3csc(N)n3)C2SC1 (single isomer, unassigned) [Example 4, disodium 7-[2-chloromethylene-2-(2-aminothiazol-4-yl)acetamido]-3-(2,5-dihydro-6-hydroxy-2-methyl-5-oxo-as-triazin-3-yl)thiomethyl-3-cephem-4-carboxylate] | 0.78 | ≤ 0.006 | ≤ 0.006 | – |
| Cn1nnnc1SCC1=C(C(=O)O)N2C(=O)C(NC(=O)C(=CBr)c3csc(N)n3)C2SC1 (stereo not drawn) [Example 21, 7-[2-Bromomethylene-2-(2-aminothiazol-4-yl)acetamido]-3-(l-methyl-lH-tetrazol-5-yl)thiomethyl-3-cephem-4-carboxylic acid] | 0.2 (≈ 0.357 µM) | ≤ 0.006 | 0.0125 (≈ 0.0223 µM) | – |
| CC1=C(C(=O)O)N2C(=O)C(NC(=O)C(=CCl)c3csc(N)n3)C2SC1 (single isomer, unassigned) [Example 2, sodium 7-[2-chloromethylene-2-(2-aminothiazol-4-yl)acetamido]desacetoxy-cephalosporanate] | 6.25 | 0.0125 | 0.0125 | – |
| CSC=C(C(=O)NC1C(=O)N2C(C(=O)O)=C(CSc3nnnn3C)CSC12)c1csc(N)n1 (stereo not drawn) [Example 12, 7-[2-Methylmercaptomethylene-2-(2-aminothiazol-4-yl)-acetamido]-3-(l-methyl-lH-tetrazol-5-yl)thiomethyl-3-cephem-4-carboxylic acid] | 1.56 (≈ 2.96 µM) | ≤ 0.006 | ≤ 0.006 | – |
| COC(=N)C=C(C(=O)NC1C(=O)N2C(C(=O)O)=C(CSc3nnnn3C)CSC12)c1csc(N)n1 (single isomer, unassigned) [Example 17, 7-[2-(o-methylcarboxyimidoylmethylene)-2-(2-aminothiazol-4-yl)acetamido]-3-(1-methyl-1H-tetrazol-5-yl)thiomethyl-3-cephem-4-carboxylic acid] | 3.12 (≈ 5.81 µM) | 0.0125 (≈ 0.0233 µM) | ≤ 0.006 | – |
| CC(=O)OCC1=C(C(=O)O)N2C(=O)C(NC(=O)C(=CCl)c3cnc(N)s3)C2SC1 (stereo not drawn) [Example 8, sodium 7-[2-chloromethylene-2-(2-aminothiazol-5-yl)acetamido]-cephalosporanate] | 0.78 | 25 | – | – |
| Cn1nnnc1SCC1=C(C(=O)O)N2C(=O)C(NC(=O)C(=CCl)c3ccccc3)C2SC1 (single isomer, unassigned) [Example 6, 7-(2-chloromethylenephenylacetamido)-3-(l-methyl-lH-tetrazol-5-yl)thiomethyl-3-cephem-4-carboxylic acid] | – | – | – | minimum inhibition concentration (MIC) ([1]; Staphylococcus aureus MS 353): 0.78 µg/mL (≈ 1.58 µM); minimum inhibition concentration (MIC) [2, 6]: 1.56 µg/mL (≈ 3.16 µM); minimum inhibition concentration (MIC) ([3]; Proteus morganii IFO 3848): 6.25 µg/mL (≈ 12.7 µM) |
| Cc1nnc(SCC2=C(C(=O)O)N3C(=O)C(NC(=O)C(=CCl)c4csc(N)n4)C3SC2)s1 (single isomer, unassigned) [Example 1, sodium 7-[2-chloromethylene-2-(2-aminothiazol-4-yl)acetamido]-3-(2-methyl-l,3,4-thiadiazol-5-yl)thiomethyl-3-cephem-4-carboxylate] | 0.1 | ≤ 0.006 | ≤ 0.006 | – |
| CSc1nnc(SCC2=C(C(=O)O)N3C(=O)C(NC(=O)C(=CCl)c4csc(N)n4)C3SC2)s1 (single isomer, unassigned) [Example 20, 7-[2-chloromethylene-2-(2-aminothiazol-4-yl)acetamido]-3-(2-methylthio-l,3,4-thiadiazol-5-yl)thiomethyl-3-cephem-4-carboxylic acid] | 0.1 (≈ 0.178 µM) | ≤ 0.006 | ≤ 0.006 | – |
| Cn1nnnc1SCC1=C(C(=O)O)N2C(=O)C(NC(=O)C(=CCl)c3ccccc3)C2SC1 (single isomer, unassigned) [Example 5, 7-(2-chloromethylenephenylacetamido)-3-(1-methyl-lH-tetrazol-5-yl)thiomethyl-3-cephem-4-carboxylic acid] | – | 0.78 (≈ 1.58 µM) | – | minimum inhibition concentration (MIC) ([1]; Staphylococcus aureus MS 353): 0.05 µg/mL (≈ 0.101 µM); minimum inhibition concentration (MIC) ([3]; Proteus morganii IFO 3848): 0.78 µg/mL (≈ 1.58 µM) |
| Cn1nnnc1SCC1=C(C(=O)O)N2C(=O)C(NC(=O)C(=CC#N)c3csc(NC=O)n3)[C@H]2SC1 (single isomer, unassigned) [Example 15, 7-[2-Cyanomethylene-2-(2-formylaminothiazol-4-yl)acetamido]-3-(1-methyl-1H-tetrazol-5-yl)thiomethyl-3-cephem-4-carboxylic acid] | – | – | – | minimum inhibition concentration (MIC) ([1]; Staphylococcus aureus MS 353): 1.56 µg/mL (≈ 2.92 µM); minimum inhibition concentration (MIC) [2, 6]: 0.05 µg/mL (≈ 0.0937 µM); minimum inhibition concentration (MIC) ([3]; Proteus morganii IFO 3848): 0.39 µg/mL (≈ 0.731 µM) |
| Cn1nnnc1SCC1=C(C(=O)O)N2C(=O)C(NC(=O)C(=CCl)c3cnc(N)s3)C2SC1 (stereo not drawn) [Example 7, sodium 7-[2-chloromethylene-2-(2-aminothiazol-5-yl)acetamido]-3-(l-methyl-lH-tetrazol-5-yl)thiomethyl-3-cephem-4-carboxylate] | 0.39 | 1.56 | 1.56 | – |
| Cn1nnnc1SCC1=C(C(=O)O)N2C(=O)C(NC(=O)C(=CCl)Sc3cnc(N)s3)C2SC1 (stereo not drawn) [Example 9, sodium 7-[2-chloromethylene-3-(2-aminothiazol-5-yl)mercaptoacetamido]-3-(1-methyl-1H-tetrazol-5-yl)thiomethyl-3-cephem-4-carboxylate] | 3.12 | 25 | – | – |
| Nc1nc(C(=CCl)C(=O)NC2C(=O)N3C(C(=O)[O-])=C(CSc4nncs4)CS[C@H]23)cs1.[Na+] (single isomer, unassigned) [Example 3, sodium 7-[2-chloromethylene-2-(2-aminothiazol-4-yl)acetamido]-3-(1,3,4-thiadiazol-5-yl)thiomethyl-3-cephem-4-carboxylate] | – | – | – | MIC ([1]; MS353, read-out: minimum inhibition concentration (MIC)): 0.1 µg/mL; MIC [2]: ≤ 0.006 µg/mL; MIC ([3]; IFO3848, read-out: minimum inhibition concentration (MIC)): ≤ 0.006 µg/mL |
| Cn1nnnc1SCC1=C(C(=O)O)N2C(=O)C(NC(=O)C(=CC#N)c3csc(N)n3)C2SC1 (single isomer, unassigned) [Example 16, 7-[2-Cyanomethylene-2-(2-aminothiazol-4-yl)acetamido]-3-(l-methyl-lH-tetrazol-5-yl)thiomethyl-3-cephem-4-carboxylic acid] | 0.78 (≈ 1.54 µM) | ≤ 0.006 | ≤ 0.006 | – |
| Nc1nc(C(=CCl)C(=O)NC2C(=O)N3C(C(=O)O)=C(CSc4nnnn4CC(=O)O)CS[C@H]23)cs1 (single isomer, unassigned) [Example 19, 7-[2-Chloromethylene-2-(2-aminothiazol-4-yl)acetamido]-3-(1-carboxymethyl-1H-tetrazol-5-yl)thiomethyl-3-cephem-4-carboxylic acid] | 1.56 (≈ 2.79 µM) | ≤ 0.006 | ≤ 0.006 | – |
| Cl.Cn1nnnc1SCC1=C(C(=O)O)N2C(=O)C(NC(=O)C(=CC#N)c3csc(N)n3)[C@H]2SC1 (single isomer, unassigned) [Example 14, 7-[2-Cyanomethylene-2-(2-aminothiazol-4-yl)acetamido]-3-(1-methyl-1H-tetrazol-5-yl)thiomethyl-3-cephem-4-carboxylic acid hydrochloride salt] | 100 | 0.39 | 0.39 | – |
